# Source: the supplement of paper PMC10307832
# Experiments:
# Assay in all cases: relative viability (nuclei count vs DMSO), 5 days (fraction); higher = more cells survive
# Carfilzomib + Tozasertib = compound: CC(C)C[C@H](NC(=O)[C@H](CCc1ccccc1)NC(=O)CN1CCOCC1)C(=O)N[C@@H](Cc1ccccc1)C(=O)N[C@@H](CC(C)C)C(=O)[C@@]1(C)CO1 [Carfilzomib] + Cc1cc(Nc2cc(N3CCN(C)CC3)nc(Sc3ccc(NC(=O)C4CC4)cc3)n2)n[nH]1 [Tozasertib] (partner 0.1 µM)
# Outline: (§1)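 After 5 days of treatment, lung cancer cells in 1536-well plates were fixed and stained in a single step (final 0.05% Triton X-100, 1% formaldehyde, 1 ug/ml Hoechst) and their nuclei counted on 4× images. Treatment had been applied by pin tool the day after seeding as one drug alone or as a fixed anchor-drug dose with five library-drug doses (not always all listed) in √10 steps. Relative viability is the nuclei count of treated wells divided by that of vehicle wells, and values are medians of duplicate plates.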
# Carfilzomib + Phenformin = compound: CC(C)C[C@H](NC(=O)[C@H](CCc1ccccc1)NC(=O)CN1CCOCC1)C(=O)N[C@@H](Cc1ccccc1)C(=O)N[C@@H](CC(C)C)C(=O)[C@@]1(C)CO1 [Carfilzomib] + N=C(N)NC(=N)NCCc1ccccc1 [Phenformin] (partner 250 µM)
# Outline: as §1
# Carfilzomib + Pemetrexed = compound: CC(C)C[C@H](NC(=O)[C@H](CCc1ccccc1)NC(=O)CN1CCOCC1)C(=O)N[C@@H](Cc1ccccc1)C(=O)N[C@@H](CC(C)C)C(=O)[C@@]1(C)CO1 [Carfilzomib] + Nc1nc2[nH]cc(CCc3ccc(C(=O)N[C@@H](CCC(=O)O)C(=O)O)cc3)c2c(=O)[nH]1 [Pemetrexed] (partner 0.2 µM)
# Outline: as §1
# Crizotinib + Palbociclib = compound: C[C@@H](Oc1cc(-c2cnn(C3CCNCC3)c2)cnc1N)c1c(Cl)ccc(F)c1Cl [Crizotinib] + CC(=O)c1c(C)c2cnc(Nc3ccc(N4CCNCC4)cn3)nc2n(C2CCCC2)c1=O [Palbociclib] (partner 0.5 µM)
# Outline: as §1
Cell Line,relative viability (Carfilzomib + Tozasertib; first compound 0.001 µM),relative viability (Carfilzomib + Tozasertib; first compound 0.003162 µM),relative viability (Carfilzomib + Tozasertib; first compound 0.01 µM),relative viability (Carfilzomib + Tozasertib; first compound 0.03162 µM),relative viability (Carfilzomib + Tozasertib; first compound 0.1 µM),relative viability (Carfilzomib + Phenformin; first compound 0.001 µM),relative viability (Carfilzomib + Phenformin; first compound 0.003162 µM),relative viability (Carfilzomib + Phenformin; first compound 0.01 µM),relative viability (Carfilzomib + Phenformin; first compound 0.03162 µM),relative viability (Carfilzomib + Phenformin; first compound 0.1 µM),relative viability (Carfilzomib + Pemetrexed; first compound 0.001 µM),relative viability (Carfilzomib + Pemetrexed; first compound 0.003162 µM),relative viability (Carfilzomib + Pemetrexed; first compound 0.01 µM),relative viability (Carfilzomib + Pemetrexed; first compound 0.03162 µM),relative viability (Carfilzomib + Pemetrexed; first compound 0.1 µM),relative viability (Crizotinib + Palbociclib; first compound 0.01 µM),relative viability (Crizotinib + Palbociclib; first compound 0.03162 µM),relative viability (Crizotinib + Palbociclib; first compound 0.1 µM),relative viability (Crizotinib + Palbociclib; first compound 0.3162 µM),relative viability (Crizotinib + Palbociclib; first compound 1 µM)
201T,0.957,1,1.04,0.993,0.754,0.404,0.482,0.483,0.464,0.328,0.33,0.33,0.337,0.351,0.312,0.336,0.375,0.329,0.384,0.344
A549,,,,,,0.0885,0.231,0.113,0.0362,0.0257,,,,,,,,,,
A-427,0.207,0.236,0.198,0.099,0.103,0.25,0.464,0.381,0.116,0.133,0.951,1.02,0.983,0.842,0.183,0.486,0.53,0.496,,0.558
ABC-1,0.196,0.193,0.196,0.212,0.211,0.235,0.25,0.236,0.229,0.185,,,,,,0.811,0.838,0.517,,0.711
BEN,0.554,0.547,0.591,0.553,0.421,0.319,0.318,0.346,0.251,0.182,0.743,0.778,0.787,0.599,0.352,0.528,0.504,0.464,0.47,0.489
CAL-12T,0.313,0.393,0.333,0.251,0.125,0.61,0.668,0.591,0.101,0.114,1.19,1.37,1.15,0.832,0.168,0.369,0.577,0.341,0.295,0.369
COR-L23,0.216,0.319,0.216,0.0505,0.0802,0.442,0.435,0.404,0.0562,0.0638,0.2,0.187,0.185,0.123,0.0834,0.289,0.269,0.298,0.256,0.328
COR-L 105,0.328,0.311,0.411,0.263,0.225,0.572,0.391,0.526,0.261,0.203,1.24,1.09,1.19,0.469,0.317,0.4,0.427,0.397,0.388,0.409
ChaGo-K-1,0.207,0.236,0.224,0.225,0.157,0.438,0.524,0.501,0.442,0.14,0.27,0.258,0.258,0.262,0.179,0.917,0.92,0.971,0.908,0.98
EKVX,0.346,0.432,0.435,0.34,0.281,0.204,0.24,0.257,0.114,0.221,0.393,0.447,0.489,,0.371,0.312,0.411,0.38,0.392,0.423
EMC-BAC-2,0.284,0.298,0.305,0.212,0.194,0.52,0.62,0.572,0.376,0.199,0.496,0.492,0.46,0.434,0.432,0.507,0.509,0.519,,0.479
EPLC-272H,0.282,0.25,0.317,0.105,0.0498,0.269,0.314,0.307,0.124,0.038,0.367,0.263,0.46,0.114,0.0633,0.334,0.298,0.31,,0.309
H3255,0.697,0.604,0.686,0.737,0.392,0.395,0.364,0.441,0.354,0.321,0.544,0.601,0.578,0.423,0.249,0.342,0.331,0.327,0.28,0.325
HARA,0.11,0.106,0.117,0.0557,0.0586,0.478,0.506,0.403,0.0435,0.0629,0.241,0.23,0.252,0.0877,0.155,0.273,0.295,0.239,0.249,0.207
HCC-15,0.385,0.393,0.385,0.356,0.0753,0.443,0.538,0.48,0.222,0.1,0.242,0.218,0.238,0.224,0.13,0.665,0.719,0.7,0.655,0.627
HCC-44,0.826,1.05,1.22,0.303,0.157,0.169,0.289,0.145,0.107,0.122,0.665,0.605,0.658,0.705,0.685,0.939,0.964,1.01,0.94,0.969
HCC-78,0.356,0.61,0.401,0.358,0.287,0.539,0.683,0.78,0.668,0.235,0.876,0.868,0.904,0.967,0.9,0.431,0.537,0.545,,0.513
HCC-366,0.0847,0.132,0.185,0.106,0.0351,0.622,0.678,0.596,0.565,0.17,0.158,0.149,0.2,0.17,0.039,0.381,0.429,0.347,,0.449
HCC-827,0.366,0.397,0.47,0.411,0.265,0.37,0.44,0.428,0.394,0.279,0.252,0.267,0.277,0.254,0.155,0.455,0.492,0.498,0.463,0.413
HOP-62,0.37,0.405,0.385,0.19,0.0741,0.749,0.694,0.415,0.232,0.0898,0.404,0.304,0.417,0.0823,0.063,0.444,0.416,0.412,0.396,0.495
LC-2-ad,0.466,0.453,0.498,0.279,0.24,0.567,0.668,0.612,0.453,0.181,0.275,0.302,0.28,0.273,0.232,0.525,0.504,0.53,,0.472
LCLC-97TM1,0.25,0.263,0.215,0.205,0.107,0.423,0.401,0.497,0.302,0.147,0.164,0.176,0.173,0.167,0.0627,0.233,0.25,0.197,0.212,0.205
LCLC-103H,0.467,0.511,0.408,0.518,0.169,0.328,0.327,0.297,0.285,0.17,0.483,0.459,0.529,0.446,0.404,0.469,0.435,0.438,0.471,0.508
LK-2,0.181,0.172,0.159,0.179,0.196,0.628,0.584,0.158,0.119,0.182,0.304,0.295,0.273,0.0987,0.0939,0.65,0.691,0.596,0.609,0.534
NCI-H596,1.16,0.878,0.721,0.222,0.168,0.807,0.812,0.781,0.433,0.25,0.486,0.519,0.421,0.329,0.244,,,,,
NCI-H727,0.708,0.754,0.602,0.438,0.378,0.559,0.626,0.573,0.256,0.182,,,,,,0.703,0.621,0.655,0.639,0.595
NCI-H1563,,,,,,0.673,0.681,0.61,0.661,0.48,0.685,0.773,0.727,0.82,0.498,,,,,
NCI-H1623,0.404,0.443,0.515,0.434,0.294,0.5,0.612,0.725,0.19,0.414,,,,,,,,,,
NCI-H1648,,0.556,0.495,0.37,0.248,,,,,,0.717,0.671,0.805,0.416,0.263,,0.262,0.264,0.275,0.318
NCI-H1792,,,,,,0.188,0.357,0.262,0.234,0.0821,,0.937,0.773,0.49,0.0813,0.588,0.692,0.639,,0.68
